Laboratory results reported in patent US20230129438A1, “IMMUNOMODULATING IMINE-OXAZOLINE AZALIDES” (Zoetis Services LLC, priority 2020, published 2023).
Marks after values point to notes of the source that are not given here.

Tests used:
TNF-α = experiment: Bovine whole blood assay, LPS-induced TNF-α; assay type: cell-based; details: LPS 1 μg/mL
Experimental: (§1) (protected from light) for 30 minutes.

IL-1β = experiment: Bovine whole blood assay, IL-1β; assay type: cell-based; details: drug concentration giving overstimulation of IL-1β over LPS (cellular toxicity signal)
Experimental: as §1

P. multocida 46572 = experiment: In vivo mouse lung infection challenge model (murine efficacy model); details: for % Survival: 20 mg/kg subcutaneous, CD-1 mice, intranasal challenge, to Day 10, approximate (~%), harmonized relative to vehicle and M9
[1] = tested on: BRD pathogens, M. haemolytica and P. multocida; experiment: In-vitro MIC model, BRD pathogen screening panel; assay type: cell-based; details: asterisk = at least one BRD bacterial isolate

| SMILES | IC50 (TNF-α) [µM] | IL-Iβ OS of LPS (IL-1β) [µM] | % Survival (P. multocida 46572) [%] | MIC flag on Ex# (Table A) [1] | clinical efficacy, in words (P. multocida 46572; P. multocida infection in mice) |
| --- | --- | --- | --- | --- | --- |
| CCCNC[C@]1(O)[C@H](C)O[C@@H](O[C@H]2[C@H](C)[C@@H](O[C@@H]3O[C@H](C)C[C@H]4[C@H]3OC(=Nc3ccccc3)N4C)[C@](C)(O)C[C@@H](C)CN[C@H](C)[C@@H](O)[C@](C)(O)[C@@H](CC)OC(=O)[C@@H]2C)C[C@@]1(C)OC (mixture of isomers) [Example A-6, (E/Z)-(2R,3S,4R,5R,8R,10R,11R,12S,13S,14R)-11-(((3aR,4S,6R,7aS)-1,6-dimethyl-2-(phenylimino)hexahydro-2H-pyrano[4,3-d]oxazol-4-yl)oxy)-2-ethyl-3,4,10-trihydroxy-13-(((2R,4R,5S,6S)-5-hydroxy-4-methoxy-4,6-dimethyl-5-((propylamino)methyl)tetrahydro-2H-pyran-2-yl)oxy)-3,5,8,10,12,14-hexamethyl-1-oxa-6-azacyclopentadecan-15-one] | < 5 | 13 | 54 | – | – |
| CC[C@H]1OC(=O)[C@H](C)[C@@H](O[C@H]2C[C@@](C)(OC)[C@](O)(CNC(C)C)[C@H](C)O2)[C@H](C)[C@@H](O[C@@H]2O[C@H](C)C[C@H]3[C@H]2OC(=Nc2ccc(OC)nc2)N3C)[C@](C)(O)C[C@@H](C)CN[C@H](C)[C@@H](O)[C@]1(C)O (mixture of isomers) [Example A-26, (E/Z)-(2R,3S,4R,5R,8R,10R,11R,12S,13S,14R)-2-ethyl-3,4,10-trihydroxy-13-(((2R,4R,5S,6S)-5-hydroxy-5-((isopropylamino)methyl)-4-methoxy-4,6-dimethyltetrahydro-2H-pyran-2-yl)oxy)-11-(((3aR,4S,6R,7aS)-2-((6-methoxypyridin-3-yl)imino)-1,6-dimethylhexahydro-2H-pyrano[4,3-d]oxazol-4-yl)oxy)-3,5,8,10,12,14-hexamethyl-1-oxa-6-azacyclopentadecan-15-one] | – | – | – | A-26* (an MIC ≤ 64 μg/mL for at least one BRD bacterial isolate) | – |
| CC[C@H]1OC(=O)[C@H](C)[C@@H](O[C@H]2C[C@@](C)(OC)[C@](O)(CNCCCOC)[C@H](C)O2)[C@H](C)[C@@H](O[C@@H]2O[C@H](C)C[C@H]3[C@H]2OC(=Nc2ccc(OC)nc2)N3C)[C@](C)(O)C[C@@H](C)CN[C@H](C)[C@@H](O)[C@]1(C)O (mixture of isomers) [Example A-27, (E/Z)-(2R,3S,4R,5R,8R,10R,11R,12S,13S,14R)-2-ethyl-3,4,10-trihydroxy-13-(((2R,4R,5S,6S)-5-hydroxy-4-methoxy-5-(((3-methoxypropyl)amino)methyl)-4,6-dimethyltetrahydro-2H-pyran-2-yl)oxy)-11-(((3aR,4S,6R,7aS)-2-((6-methoxypyridin-3-yl)imino)-1,6-dimethylhexahydro-2H-pyrano[4,3-d]oxazol-4-yl)oxy)-3,5,8,10,12,14-hexamethyl-1-oxa-6-azacyclopentadecan-15-one] | – | – | – | A-27* (an MIC ≤ 64 μg/mL for at least one BRD bacterial isolate) | – |
| CCCNC[C@]1(O)[C@H](C)O[C@@H](O[C@H]2[C@H](C)[C@@H](O[C@@H]3O[C@H](C)C[C@H]4[C@H]3OC(=Nc3ccc(OC)cc3)N4C)[C@](C)(O)C[C@@H](C)CN(C)[C@H](C)[C@@H](O)[C@](C)(O)[C@@H](CC)OC(=O)[C@@H]2C)C[C@@]1(C)OC (mixture of isomers) [Example A-30, (E/Z)-(2R,3S,4R,5R,8R,10R,11R,12S,13S,14R)-2-ethyl-3,4,10-trihydroxy-13-(((2R,4R,5S,6S)-5-hydroxy-4-methoxy-4,6-dimethyl-5-((propylamino)methyl)tetrahydro-2H-pyran-2-yl)oxy)-11-(((3aR,4S,6R,7aS)-2-((4-methoxyphenyl)imino)-1,6-dimethylhexahydro-2H-pyrano[4,3-d]oxazol-4-yl)oxy)-3,5,6,8,10,12,14-heptamethyl-1-oxa-6-azacyclopentadecan-15-one] | 10 | 16 | – | – | – |
| CCCNC[C@]1(O)[C@H](C)O[C@@H](O[C@H]2[C@H](C)[C@@H](O[C@@H]3O[C@H](C)C[C@H]4[C@H]3OC(=Nc3ccccc3)N4C)[C@](C)(O)C[C@@H](C)CN(CCC)[C@H](C)[C@@H](O)[C@](C)(O)[C@@H](CC)OC(=O)[C@@H]2C)C[C@@]1(C)OC (mixture of isomers) [Example A-34, (E/Z)-(2R,3S,4R,5R,8R,10R,11R,12S,13S,14R)-11-(((3aR,4S,6R,7aS)-1,6-dimethyl-2-(phenylimino)hexahydro-2H-pyrano[4,3-d]oxazol-4-yl)oxy)-2-ethyl-3,4,10-trihydroxy-13-(((2R,4R,5S,6S)-5-hydroxy-4-methoxy-4,6-dimethyl-5-((propylamino)methyl)tetrahydro-2H-pyran-2-yl)oxy)-3,5,8,10,12,14-hexamethyl-6-propyl-1-oxa-6-azacyclopentadecan-15-one] | 7 | 6 | – | – | – |
| CC[C@H]1OC(=O)[C@H](C)[C@@H](O[C@H]2C[C@@](C)(OC)[C@](O)(CN3CCN(C)CC3)[C@H](C)O2)[C@H](C)[C@@H](O[C@@H]2O[C@H](C)C[C@H]3[C@H]2OC(=Nc2ccccc2)N3C)[C@](C)(O)C[C@@H](C)CN[C@H](C)[C@@H](O)[C@]1(C)O (mixture of isomers) [Example B-1, (E/Z)-(2R,3S,4R,5R,8R,10R,11R,12S,13S,14R)-11-(((3aR,4S,6R,7aS)-1,6-dimethyl-2-(phenylimino)hexahydro-2H-pyrano[4,3-d]oxazol-4-yl)oxy)-2-ethyl-3,4,10-trihydroxy-13-(((2R,4R,5S,6S)-5-hydroxy-4-methoxy-4,6-dimethyl-5-((4-methylpiperazin-1-yl)methyl)tetrahydro-2H-pyran-2-yl)oxy)-3,5,8,10,12,14-hexamethyl-1-oxa-6-azacyclopentadecan-15-one] | 8 | 13 | 43 | – | – |
| CC[C@H]1OC(=O)[C@H](C)[C@@H](O[C@H]2C[C@@](C)(OC)[C@](O)(CN3CCOCC3)[C@H](C)O2)[C@H](C)[C@@H](O[C@@H]2O[C@H](C)C[C@H]3[C@H]2OC(=Nc2ccc(OC)cc2)N3C)[C@](C)(O)C[C@@H](C)CN[C@H](C)[C@@H](O)[C@]1(C)O (mixture of isomers) [Example B-4, (E/Z)-(2R,3S,4R,5R,8R,10R,11R,12S,13S,14R)-2-ethyl-3,4,10-trihydroxy-13-(((2R,4R,5S,6S)-5-hydroxy-4-methoxy-4,6-dimethyl-5-(morpholinomethyl)tetrahydro-2H-pyran-2-yl)oxy)-11-(((3aR,4S,6R,7aS)-2-((4-methoxyphenyl)imino)-1,6-dimethylhexahydro-2H-pyrano[4,3-d]oxazol-4-yl)oxy)-3,5,8,10,12,14-hexamethyl-1-oxa-6-azacyclopentadecan-15-one] | < 5 | 13 | 37 | – | clinically efficacious |

Second part, led by results:

| IC50 (TNF-α) [µM] | SMILES | IL-Iβ OS of LPS (IL-1β) [µM] | % Survival (P. multocida 46572) [%] | MIC flag on Ex# (Table A) [1] | clinical efficacy, in words (P. multocida 46572; P. multocida infection in mice) |
| --- | --- | --- | --- | --- | --- |
| 20 | CCNC[C@]1(O)[C@H](C)O[C@@H](O[C@H]2[C@H](C)[C@@H](O[C@@H]3O[C@H](C)C[C@H]4[C@H]3OC(=Nc3ccccc3)N4C)[C@](C)(O)C[C@@H](C)CN[C@H](C)[C@@H](O)[C@](C)(O)[C@@H](CC)OC(=O)[C@@H]2C)C[C@@]1(C)OC (mixture of isomers) [Example A-3, (E/Z)-(2R,3S,4R,5R,8R,10R,11R,12S,13S,14R)-11-(((3aR,4S,6R,7aS)-1,6-dimethyl-2-(phenylimino)hexahydro-2H-pyrano[4,3-d]oxazol-4-yl)oxy)-2-ethyl-13-(((2R,4R,5S,6S)-5-((ethylamino)methyl)-5-hydroxy-4-methoxy-4,6-dimethyltetrahydro-2H-pyran-2-yl)oxy)-3,4,10-trihydroxy-3,5,8,10,12,14-hexamethyl-1-oxa-6-azacyclopentadecan-15-one] | 5 | – | – | – |
| 15 | CCNC[C@]1(O)[C@H](C)O[C@@H](O[C@H]2[C@H](C)[C@@H](O[C@@H]3O[C@H](C)C[C@H]4[C@H]3OC(=Nc3ccc(OC)cc3)N4C)[C@](C)(O)C[C@@H](C)CN[C@H](C)[C@@H](O)[C@](C)(O)[C@@H](CC)OC(=O)[C@@H]2C)C[C@@]1(C)OC (mixture of isomers) [Example A-12, (E/Z)-(2R,3S,4R,5R,8R,10R,11R,12S,13S,14R)-2-ethyl-13-(((2R,4R,5S,6S)-5-((ethylamino)methyl)-5-hydroxy-4-methoxy-4,6-dimethyltetrahydro-2H-pyran-2-yl)oxy)-3,4,10-trihydroxy-11-(((3aR,4S,6R,7aS)-2-((4-methoxyphenyl)imino)-1,6-dimethylhexahydro-2H-pyrano[4,3-d]oxazol-4-yl)oxy)-3,5,8,10,12,14-hexamethyl-1-oxa-6-azacyclopentadecan-15-one] | 32 | – | – | – |
| 6 | CC[C@H]1OC(=O)[C@H](C)[C@@H](O[C@H]2C[C@@](C)(OC)[C@](O)(CN3CCN(CC)CC3)[C@H](C)O2)[C@H](C)[C@@H](O[C@@H]2O[C@H](C)C[C@H]3[C@H]2OC(=Nc2ccccc2)N3C)[C@](C)(O)C[C@@H](C)CN[C@H](C)[C@@H](O)[C@]1(C)O (mixture of isomers) [Example B-2, (E/Z)-(2R,3S,4R,5R,8R,10R,11R,12S,13S,14R)-11-(((3aR,4S,6R,7aS)-1,6-dimethyl-2-(phenylimino)hexahydro-2H-pyrano[4,3-d]oxazol-4-yl)oxy)-2-ethyl-13-(((2R,4R,5S,6S)-5-((4-ethylpiperazin-1-yl)methyl)-5-hydroxy-4-methoxy-4,6-dimethyltetrahydro-2H-pyran-2-yl)oxy)-3,4,10-trihydroxy-3,5,8,10,12,14-hexamethyl-1-oxa-6-azacyclopentadecan-15-one] | 13 | – | – | – |
